This is an account of results in PubChem BioAssay AID328 (DTP/NCI, 2004).

In the assay the test system is BDF1 mice, P388 leukemia ip, median survival T/C. The assay can be described thus: NCI In Vivo Anticancer Drug Screen. Data for tumor model P388 Leukemia (intraperitoneal) in B6D2F1 (BDF1) mice. The following applies: endpoint: median survival time, higher = longer survival. Summed up: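 Each value expresses how treatment altered survival: treated-mouse outcome over vehicle-mouse outcome, both groups bearing the transplanted tumour.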

[1] abbreviates: dose: 50.0 mg/kg/injection, schedule: Q01DX009 (ip), vehicle: saline.
Where [2] appears, read: dose: 100.0 mg/kg/injection, schedule: Q01DX009 (ip), vehicle: saline.
[3] abbreviates: dose: 100.0 mg/kg/injection, schedule: Q04DX003 (ip), vehicle: saline.
Setting [4] is: dose: 200.0 mg/kg/injection, schedule: Q04DX003 (ip), vehicle: saline.
Setting [5] is: dose: 100.0 mg/kg/injection, schedule: Q01DX009 (ip), vehicle: saline with Tween-80.
Where [6] appears, read: dose: 100.0 mg/kg/injection, schedule: Q04DX003 (ip), vehicle: saline with Tween-80.
[7] abbreviates: dose: 200.0 mg/kg/injection, schedule: Q01DX009 (ip), vehicle: saline with Tween-80.
[8] abbreviates: dose: 200.0 mg/kg/injection, schedule: Q04DX003 (ip), vehicle: saline with Tween-80.
Where [9] appears, read: dose: 400.0 mg/kg/injection, schedule: Q01DX009 (ip), vehicle: saline with Tween-80.
Where [10] appears, read: dose: 400.0 mg/kg/injection, schedule: Q04DX003 (ip), vehicle: saline with Tween-80.
The mark [11] stands for this setting: dose: 6.25 mg/kg/injection, schedule: Q01DX009 (ip), vehicle: saline with Tween-80.
The mark [12] stands for this setting: dose: 12.5 mg/kg/injection, schedule: Q01DX009 (ip), vehicle: saline with Tween-80.
Setting [13] is: dose: 25.0 mg/kg/injection, schedule: Q01DX009 (ip), vehicle: saline with Tween-80.
[14] abbreviates: dose: 25.0 mg/kg/injection, schedule: Q01DX009 (ip), vehicle: saline.
Setting [15] is: dose: 100.0 mg/kg/injection, schedule: Q01DX001 (ip), vehicle: Klucel (hydroxypropylcellulose) (HPC).
Setting [16] is: dose: 200.0 mg/kg/injection, schedule: Q01DX001 (ip), vehicle: Klucel (hydroxypropylcellulose) (HPC).
The mark [17] stands for this setting: dose: 100.0 mg/kg/injection, schedule: Q01DX001 (ip), vehicle: saline with Tween-80.
Where [18] appears, read: dose: 200.0 mg/kg/injection, schedule: Q01DX001 (ip), vehicle: saline with Tween-80.
Where [19] appears, read: dose: 400.0 mg/kg/injection, schedule: Q01DX001 (ip), vehicle: saline with Tween-80.

Where “and” joins values, the source holds several entries; their conditions need not be identical. Equal values may be shown once. Toxic doses and inconclusive results are not listed.

For the compound `O=C(N[C@@H](c1ccccc1)[C@H](N=Cc1ccccc1)c1ccccc1)c1ccccc1`, the T/C under setting [1] was 102 % of control; the T/C (dose: 50.0 mg/kg/injection, schedule: Q04DX003 (ip), vehicle: saline) was 91 % of control; the T/C under setting [2] is 100 % of control; the T/C under setting [3] is 92 % of control; the T/C (dose: 200.0 mg/kg/injection, schedule: Q01DX009 (ip), vehicle: saline) is 91 % of control; the T/C under setting [4] was 91 % of control. Moreover, the T/C reads like this: (dose: 400.0 mg/kg/injection, schedule: Q01DX009 (ip), vehicle: saline) 94 % of control; (dose: 400.0 mg/kg/injection, schedule: Q04DX003 (ip), vehicle: saline) 90 % of control.
On to `CC(C)CCS(=O)(=O)OCCCCOS(=O)(=O)CCC(C)C`, for which the T/C under setting [5] was 114 % of control; the T/C under setting [6] is 100 % of control; the T/C under setting [7] is 109 % of control; the T/C under setting [8] was 100 % of control; the T/C under setting [9] is 114 % of control; the T/C under setting [10] was 104 % of control.
As to `Cc1ccc(NC(=O)N(CCCl)N=O)c(C)c1`, the T/C by setting is: under setting [11], 90 % of control; under setting [12], 159 % of control; under setting [13], 118 % of control.
Consider `COC(=O)c1cc(=O)nc(NN=C(C)C)s1`, for which the T/C was 91 % of control (dose: 50.0 mg/kg/injection, schedule: Q01DX005 (ip), vehicle: saline with Tween-80) and 100 % of control (dose: 100.0 mg/kg/injection, schedule: Q01DX005 (ip), vehicle: saline with Tween-80).
Turning to `CCOS(=O)(=O)c1ccc([N+](=O)[O-])cc1[N+](=O)[O-]`, the T/C (dose: 50.0 mg/kg/injection, schedule: Q01DX001 (ip), vehicle: saline) is 95 % of control; the T/C (dose: 100.0 mg/kg/injection, schedule: Q01DX001 (ip), vehicle: saline) is 104 % of control; the T/C (dose: 200.0 mg/kg/injection, schedule: Q01DX001 (ip), vehicle: saline) was 118 % of control.
As for `OCC(O)C(O)C(O)C(O)C(O)c1nc2ccccc2[nH]1` (stereo not given), the T/C under setting [5] was 100 % of control, the T/C under setting [7] was 91 % of control and the T/C under setting [9] is 93 % of control.
In the case of `C=CCOP(=O)(N1CC1C)N1CC1C` (stereo not given), the T/C is 106 % of control (dose: 6.25 mg/kg/injection, schedule: Q01DX009 (ip), vehicle: saline); 99 % of control (dose: 12.5 mg/kg/injection, schedule: Q01DX009 (ip), vehicle: saline); 106 % of control under setting [14]; 109 % of control (dose: 30.0 mg/kg/injection, schedule: Q04DX003 (ip), vehicle: saline); 118 % of control (dose: 45.0 mg/kg/injection, schedule: Q04DX003 (ip), vehicle: saline); 150 % of control and 161 % of control (dose: 75.0 mg/kg/injection, schedule: Q01DX009 (ip), vehicle: saline). In addition, the T/C under setting [2] is 117 % of control; the T/C under setting [3] is 180 % of control and 188 % of control; the T/C (dose: 150.0 mg/kg/injection, schedule: Q04DX003 (ip), vehicle: saline) was 188 % of control.
Turning to `C(=C/c1nc2ccccc2o1)/c1ccc2c(c1)OCO2`, the T/C reads like this: (dose: 50.0 mg/kg/injection, schedule: Q01DX011 (ip), vehicle: Klucel (hydroxypropylcellulose) (HPC)) 102 % of control; under setting [15], 100 % of control; (dose: 100.0 mg/kg/injection, schedule: Q01DX011 (ip), vehicle: Klucel (hydroxypropylcellulose) (HPC)) 99 % of control; under setting [16], 86 % of control; (dose: 200.0 mg/kg/injection, schedule: Q01DX011 (ip), vehicle: Klucel (hydroxypropylcellulose) (HPC)) 100 % of control; (dose: 400.0 mg/kg/injection, schedule: Q01DX001 (ip), vehicle: Klucel (hydroxypropylcellulose) (HPC)) 94 % of control.
As for `O=C(CN1C(=O)c2ccccc2C1=O)c1ccc(C(F)(F)F)cc1`, the T/C runs as follows: (dose: 50.0 mg/kg/injection, schedule: Q01DX001 (ip), vehicle: Klucel (hydroxypropylcellulose) (HPC)) 96 % of control; under setting [15], 105 % of control; under setting [16], 88 % of control.
As for `NNC(=O)c1ccccn1`, the T/C was 92 % of control under setting [14], 100 % of control under setting [1], 100 % of control under setting [2] and 88 % of control under setting [3].
`CCNC(C)(C)C(=O)c1ccco1`: the T/C by setting is: under setting [3], 100 % of control; under setting [4], 100 % of control.
As to `O=C(Cn1ccc(O)cc1=O)c1ccc(Cl)s1`, the T/C under setting [5] is 98 % of control, the T/C under setting [7] was 93 % of control and the T/C under setting [9] was 104 % of control.
On to `CCC(/C=C/C(C)C1CCC2C3CC=C4CC(O)CCC4(C)C3CCC12C)C(C)C` (stereo not given) (tested in a mixture with another compound), for which the T/C under setting [14] is 104 % of control; the T/C (dose: 25.0 mg/kg/injection, schedule: Q04DX003 (ip), vehicle: alcohol) was 109 % of control; the T/C under setting [1] was 95 % of control; the T/C (dose: 50.0 mg/kg/injection, schedule: Q04DX003 (ip), vehicle: alcohol) was 95 % of control; the T/C under setting [2] is 100 % of control; the T/C (dose: 100.0 mg/kg/injection, schedule: Q04DX003 (ip), vehicle: alcohol) is 100 % of control.
For the compound `COc1ccc(NC(=O)Nc2ccccc2F)cc1`, the T/C runs as follows: under setting [17], 95 % of control; under setting [18], 95 % of control; under setting [19], 95 % of control.
Regarding `CC1CCC2(OC1)OC1C(O)C3C4CCC5CC(OC6OC(CO)C(OC7OC(CO)C(O)C(OC8OCC(O)C(O)C8O)C7OC7OC(CO)C(O)C(OC8OC(CO)C(O)C(O)C8O)C7O)C(O)C6O)C(O)CC5(C)C4CCC3(C)C1C2C` (stereo not given), the T/C by setting is: under setting [11], 100 % of control; (dose: 6.25 mg/kg/injection, schedule: Q04DX003 (ip), vehicle: saline) 92 % of control; under setting [12], 95 % of control; (dose: 12.5 mg/kg/injection, schedule: Q04DX003 (ip), vehicle: saline) 92 % of control; under setting [13], 104 % of control; (dose: 25.0 mg/kg/injection, schedule: Q04DX003 (ip), vehicle: saline) 96 % of control.
Turning to `c1coc(NC2CCCCC2)n1`, the T/C by setting is: under setting [17], 90 % of control; under setting [18], 95 % of control; under setting [19], 95 % of control.
For the compound `O=C1c2ccccc2C(=O)c2c(NCCN3CCCCC3)ccc(NCCN3CCCCC3)c21`, the T/C (dose: 50.0 mg/kg/injection, schedule: Q01DX009 (ip), vehicle: other) was 115 % of control.
In the case of `CCCC[N+](CC)(CC)CCCNC1=CC(=O)C(NCCC[N+](CC)(CC)CCCC)=CC1=O`, the T/C is 105 % of control (dose: 0.39 mg/kg/injection, schedule: Q04DX002 (ip), vehicle: saline) and 105 % of control (dose: 0.78 mg/kg/injection, schedule: Q04DX002 (ip), vehicle: saline).
As for `CC(=O)Nc1cc(C(=O)O)cc(C(F)(F)F)c1`, the T/C was 115 % of control under setting [6], 105 % of control under setting [8] and 95 % of control under setting [10].
Consider `COc1cc(N(CCCl)CCCl)ccc1C=Nc1ccccc1C(=O)O`, for which the T/C runs as follows: (dose: 5.0 mg/kg/injection, schedule: Q01DX009 (ip), vehicle: saline) 227 % of control; (dose: 11.9 mg/kg/injection, schedule: Q04DX003 (ip), vehicle: saline with Tween-80) 237 % of control; (dose: 18.0 mg/kg/injection, schedule: Q04DX003 (ip), vehicle: saline with Tween-80) 254 % of control; (dose: 27.0 mg/kg/injection, schedule: Q04DX003 (ip), vehicle: saline with Tween-80) 116 % of control.
